The term AUC(0-inf) denotes the area under the concentration-time curve extrapolated to infinity. A high value points to high exposure. A word on the Cmax: it is the maximum level reached in the sampled fluid or tissue. Usually Tmax stands for the time at which the peak concentration occurs. Broadly, the Vd is a proportionality between amount in the body and measured concentration, not a real space. For orientation: clearance means the rate of elimination divided by the concentration. A low value points to a low capacity for elimination.

The values below come from US12036223B2, “Small molecule trail gene induction by normal and tumor cells as an anticancer therapy” (The Penn State Research Foundation, priority 2011, dated 2024).

Like-named read-outs stand apart in the source and are kept apart here.

The conditions of data set [1]: TRAIL protein / recombinant TRAIL, cited from earlier work.
For another data set, the system named is DLD-1 xenografts. The data set can be described thus: DLD-1 subcutaneous xenograft. The conditions noted are these: single dose, 1 week post-treatment, TIC10 i.p., TRAIL i.v.
Data set [2] deals with MDA-MB-231 human breast cancer xenografts. Description: MDA-MB-231 subcutaneous xenograft. The settings on record: single doses, TIC10 i.p., TRAIL i.v.
Method: (§4) For subcutaneous xenografts, 4-6 week old female, athymic nu/nu mice (Charles River Laboratories) were inoculated with 1×10^6 cells (2.5×10^6 for T98G) of indicated cell lines in each rear flank as a 200 μL suspension of 1:1 Matrigel (BD):PBS. All intraperitoneal and intravenous injections were given at a total volume of 200 μL. […] Tumors were monitored using digital calipers at indicated time points. All subcutaneous tumors were allowed to establish for 1-4 weeks post-injection until reaching a volume of ˜125 mm^3 before treatment initiation. Relief of tumor burden was monitored for 3 weeks following disappearance of the tumor and confirmed by visual inspection after euthanasia.
(§5) Error bars indicate standard deviation (s.d.) of replicates. *P<0.05 and **P<0.005 between the indicated condition and control unless otherwise indicated.
For data set [3], the system named is SF767 intracranial tumors. The data set can be described thus: Overall survival of mice harboring SF767 intracranial tumors. Format: in vivo, athymic nude mice. The conditions noted are these: for Median Survival: TIC10 25 mg/kg oral, bevacizumab 10 mg/kg i.v. How it is done: For intracranial xenografts, anesthetized athymic nude mice were implanted with 2×10^5 SF767 cells in a 25 μL suspension of serum- and antibiotic-free RPMI. The site of injection was a burr hole created 1 mm lateral to the midline of the skull and 1 mm anterior to the coronal suture. The injection was gradually administered over 5 minutes with a Hamilton syringe and the burr hole was sealed using bone wax. Tumor take was assessed by bioluminescent imaging 2 weeks following implantation. Bioluminescent imaging of tumors was carried out on an IVIS imaging system as described in Wang et al., 2003, PNAS 100:15095-15100.

The test system of data set [4] is Eμ-Myc transgenic mice that spontaneously develop lymphoma. The conditions noted are these: weekly oral TIC10 25 mg/kg during weeks 9-12 of age. The method, then: Near-infrared imaging of mice was carried out on a Pearl Impulse imaging system (LI-COR) following tail-vein injection of AngioSense® 680 (VisEn Medical, Woburn, MA) according to the manufacturer's protocols. 6 week old Eμ-myc mice were obtained from The Jackson Laboratory (B6.Cg-Tg(IghMyc)22Bri/J).
P value determined by log-rank test. For relative tumor volume plots, tumor size is expressed relative to the tumor size on day 0, which is defined as the day of treatment initiation.

Data set [5] relates to TRAIL. The method, then: (§1) Tissue analyses. […] Serum was then removed following centrifugation for 5 minutes.
ELISA for TRAIL was carried out using the Quantikine® TRAIL/TNFSF10 kit according to the manufacturer's protocol (DTRL00, R&D systems, Minneapolis, MN). […] Absorbances were measured with a DTX 880 plate reader (Beckman Coulter).
(§2) Error bars indicate s.d. of replicates.

For the next data set, the system named is GBM cell lines. Description: Cell viability assays of GBM cell lines. Type of data set: cell-based, human. The conditions noted are these: 72 hr post-treatment, p53-independent.
The subject of another data set is HCT116 p53−/− xenograft. Description: HCT116 p53−/− subcutaneous xenograft. The conditions noted are these: 3 doses on day 0, 3 and 6, TIC10 i.p. Format: in vivo, athymic nu/nu mice.
A further data set relates to SW480 xenograft. The data set can be described thus: SW480 subcutaneous xenograft. Type of data set: in vivo, athymic nu/nu mice. The conditions noted are these: single dose 30 mg/kg, intraperitoneal or oral delivery.
The test system of another data set is HCT116 xenograft. Description: HCT116 xenograft, single oral dose titration. Type of data set: in vivo, athymic nu/nu mice. The conditions noted are these: 25 mg/kg.
Data set [6] relates to subcutaneous T98G xenografts. Description: T98G subcutaneous xenograft. The settings on record: single oral dose, 30 mg/kg. Format: in vivo, athymic nu/nu mice. How it is done: TIC10 was tested in preclinical models of GBM as a monoagent and in combination with bevacizumab.
Data set [7] has as its system intracecal HCT116 p53−/− tumors. The conditions noted are these: multi-dose regimen, once a week. The method, then: Intracecal implantation was performed as described in Cespedes, M. V., et al., Am J Pathol, 2007, 170(3): p. 1077-1085.
FIG. 37 is a graph showing percent of cohorts with implanted with intracecal HCT116 p53^−/− tumors with evident tumors at the primary and distal sites at endpoint (n=5).
FIG. 38 is a graph showing body weight of mice at endpoint. Error bars indicate s.d. of replicates.

A short description of data set [8]: Blood-brain barrier crossing. The settings on record: in vivo.
In another data set the test system is HCT116 cells. The data set can be described thus: Cell viability in HCT116 cells after 1 hr pre-incubation of agent at indicated temperatures. Format: cell-based, human. The conditions noted are these: TIC10 5 μM, 1 hr pre-incubation at indicated temperatures, 72 hr.
For data set [9], the system named is TRAIL mRNA in HCT116 p53−/− cells. The data set can be described thus: RT-qPCR analysis of TRAIL mRNA levels. Format: cell-based, human. The settings on record: 48 hr. On the technique in general: Quantitative PCR measures a nucleic acid by following its amplification.
Method: Total RNA was extracted using RNeasy Minikit (Qiagen) by following the manufacturer's instructions. cDNA was generated using SuperScript II (Invitrogen) with 1 μg of RNA and oligodT. […] PCR amplification was performed with the Applied Biosystems 7900HT Fast Real-time Detection System. Samples were standardized to 10 ng/μl and twenty ng of cDNA per sample was then utilized as a template for real-time PCR using a SYBR Green Master Mix (Qiagen Corp, USA). Samples were normalized to GAPDH used under identical conditions. Quantitation used the 2ΔΔCt method of crossing thresholds described in Livak et al., 2001, Methods. […] Reactions were performed in 384 well optical plates in a 7900HT instrument (Applied Biosystems), with 10 ul reaction volumes. Data analysis used the ABI PRISM 7900 Sequence Detection System 2.2 software. To exclude the possibility of genomic DNA contamination, control PCR reactions with no cDNA template and No-RT control samples were also performed for each gene-specific primer set. Quadruplicates of each PCR reaction were performed and the resultant data was averaged.
Data set [10] deals with surface TRAIL in a panel of cancer cells. Description: Surface TRAIL by flow cytometry in cancer cell lines. The settings on record: 72 hr, p53-independent. Format: cell-based, human. For orientation: In flow cytometry, cells or beads pass a laser one at a time.
Data set [11] has as its system freshly resected colon tumor cells from a human patient. The conditions noted are these: TIC10 0.6-20 μM. The method, then:
(§3) For all flow cytometry analyses, floating and adherent cells were analyzed on a Coulter-Beckman Elite Epics cytometer. For surface TRAIL experiments, adherent cells were harvested by brief trypsinization, fixed in 4% paraformaldehyde in PBS for 20 min, incubated with an anti-TRAIL antibody for 2 hr (Abeam), washed and incubated with anti-rabbit Alexafluor 488 (Invitrogen) for 30 min, and analyzed. Cells were gated on forward and side scatter to eliminate debris and dead cells from the analysis. Surface TRAIL data is expressed as median fluorescence intensity relative to that of control samples unless indicated as otherwise. For Sub-G1 and cell cycle profile experiments, all cells were pelleted and ethanol fixed followed by staining with propidium iodide (Sigma) in the presence of RNAse. Cell viability assays were carried out in 96-well black-walled clear-bottom plates using CellTiter-Glo® (Promega) according to the manufacturer's protocols. Imaging and quantification of these assays were performed on an IVIS imaging system (Xenogen).
as §2

For data set [12], the system named is pAkt and pERK in HCT116 p53−/− cells. The data set can be described thus: Western blot analysis of pAkt and pERK. Format: cell-based, human. The settings on record: TIC10 2.5, 5, 10 μM, 72 hr, dose-dependent. How it is done:
Western blot analysis was conducted as described in Wang, W. et al., PNAS 103, 11003-11008, 2006, using NuPAGE 4-12% Bis-Tris and visualized using Supersignal West Femto (Thermo Scientific) and X-ray film. Nuclear and cytoplasmic extracts were prepared using a cytoplasmic lysis buffer (10 mM HEPES, 10 mM KCl, and 2 mM MgCl2, 1 mM DTT) followed by a nuclear lysis buffer (20 mM HEPES, 420 mM NaCl, 1.5 mM MgCl2, 250 μM EDTA, 25% glycerol). For all lysis buffers, fresh protease inhibitor (Roche) and 1 mM sodium orthovanadate was added immediately prior to use.
TIC10-induced changes in regulators of Foxo3a such as IKK, Akt, and ERK were determined.
FIG. 61 is a graph showing time course of protein expression levels of TIC10-induced effects determined by densitometry of Western blots from replicate experiments as in FIG. 60 (n=3). Data is express relative to the control sample for each time point and normalized to Ran. TRAIL was quantified by flow cytometry as a parallel experiment (n=3).
In general terms: A western blot detects proteins with antibodies after separation by electrophoresis.

The subject of data set [13] is TRAIL. The settings on record: TIC10 100 mg/kg i.v. How it is done:
as §1

A further data set relates to cancer cell lines. Description: Colony formation assays, cancer cell lines. Type of data set: cell-based, human. The settings on record: 10 μM, 72 hr.
For a further data set, the system named is HCT116 p53−/− cells. Description: Sub-G1 / cell cycle profile, HCT116 p53−/− cells. Format: cell-based, human. The settings on record: 5 μM, 72 hr. The method, then:
as §3

Data set [14] has as its system HFF cells. The settings on record: 5 μM, 72 hr. How it is done: as §3
For data set [15], the system named is freshly isolated GBM cells. The conditions noted are these: temozolomide-resistant, previously irradiated, 72 hr. The method, then: as §3
Data set [16] has as its system human TRAIL gene promoter in HCT116 Bax−/− cells. The conditions noted are these: first 504 base pairs of the TRAIL promoter.
Method: Bioluminescent high-throughput screening using the NCI diversity set II was carried out in HCT116 Bax^−/− cells that were stably cotransfected to express a firefly luciferase construct under transcriptional control of the first 504 base pairs of the TRAIL promoter upstream of the start of transcription of the human TRAIL gene. Compounds were tested at a working concentration of 20 nM, 200 nM, 500 nM, and 1 μM with bioluminescent assessment of transcriptional activity at 12, 24, 36, and 48 hours post-treatment.
Data set [17] in a line: Pharmacokinetic analysis of TIC10 in plasma.
Method: HPLC analysis was performed by absorbance detection at 239 nm on an Agilent 1200 series system (Agilent, Santa Clara, CA) using an Eclipse XDB-C18 column (Agilent) and a 100 μL injection loop. Isocratic elution at 1 mL/minute was carried out in 0.1% trifluoroacetic acid in dH2O. An acetonitrile (ACN) gradient was carried out for elution as 15-20% ACN at 0-5 minutes, 20-23% for 5-12 minutes, 25% for 12-18 minutes. […] For all plasma samples, blood was obtained by terminal cardiac puncture of the left ventricle and collected into EDTA tubes (BD). Samples were centrifuged at 500 g for 10 minutes. Plasma was deproteinated by the adding 30 μL of perchloric acid to 100 μL of samples, vortexed for 15 seconds, centrifuged for 2 minutes, and the supernatant was immediately injected into the HPLC. AUC was normalized to an internal serum peak with a retention time of 8.1 minutes. AUC data versus time was fit with a two-compartment open model with first order elimination from central compartment using the equation AUC=Ae^−αt+Be^−βt where t=time and A and B are the extrapolated concentrations at the initiation of the two phases (distribution and elimination). Half-lives calculated as t1/2α=0.693/α and t1/2β=0.693/β. Other equations used for calculation include CL=dose/AUC0-∞ and Vd=dose/(AUC0-∞Xβ).
Error bars represent standard error mean of replicates.
Data set [18] in a line: Body weight and liver histology of treated mice. The settings on record: TIC10 100 mg/kg i.p. single dose; 25 mg/kg oral weekly for 4 weeks.
Method: Tissue analyses. Mice were humanely sacrificed at indicated time points and excised normal tissue or tumors were fixed in 4% paraformaldehyde/PBS overnight at 4° C. If plasma samples were desired, 500 μL of blood was collected by terminal cardiac puncture under anesthesia in EDTA-Vacutainer tubes (BD). Serum samples were collected in a similar fashion but in microcentrifuge tubes followed by a 30 minute incubation at room temperature to allow for clotting. Serum was then removed following centrifugation for 5 minutes. Paraffin-embedded blocks, serial section slides, and hematoxylin and eosin staining were prepared according to standard procedures. TUNEL staining was performed using the ApopTag® Peroxidase In Situ Apoptosis Detection Kit (Millipore). For IHC analysis, slides were dewaxed in xylene and hydrated in a decreasing gradient of ethanol. Antigen retrieval was carried out by boiling in 10 mM citric acid (pH 6.0) for 6 min. Samples were blocked with streptavidin and biotin blocking solutions and goat serum (Vector Laboratories). Primary antibodies were incubated overnight at 4° C. in a humidity chamber. Incubation with biotinylated secondary antibody and DAB deposition was carried out according the manufacturer's protocol (Vector Laboratories DAB Substrate Kit for Peroxidase). […] Images were recorded on an Axioskop microscope using QCapture software (QImaging).
The test system of data set [19] is HFF cells. Description: Colony formation parallel experiment, HFF cells.
Method: Indicated cell lines were plated at 500 cells per well and treated the following day in fresh complete media after adherence. At 3 days post-treatment, the media was replaced with drug-free media and cells were propagated for 10 days with fresh media given once every 3 days. At the end of the 10 day period, cells were washed in PBS, fixed with methanol, and stained with Coomassie blue, rinsed, and dried for quantification.
Error bars indicate standard deviation (s.d.) of replicates. […] Error bars indicate standard deviation (s.d.) of replicates.
A short description of data set [20]: Serum chemistry of C57/B6 mice treated weekly for 4 weeks.
Method: For CBC/differential and serum chemistry assays, 1 mL of blood was harvested from anesthetized mice by terminal cardiac puncture of the left ventricle. For serum chemistry, 500 μL, was placed into a microfuge tube and allowed to clot for 30 minutes at room temperature followed by centrifugation. Serum was removed, centrifuged again to remove any further clots, and serum was submitted for analysis. For CBC/differentials, 500 μL of blood was collected into EDTA tubes and analyzed.
[21] abbreviates: single dose at 2 weeks post-implantation.
The mark [22] stands for this setting: tumor-free mice, TIC10 100 mg/kg i.v.
Setting [23] is: 25 mg/kg intravenous, plasma, two-compartment model.
[24] abbreviates: female, C57/B6, mouse, in vivo, iv, 25 mg/kg.
Setting [25] is: serum, TIC10 25 mg/kg oral weekly for 4 weeks.

Method for DLD-1 xenografts: as §4
Method for GBM cell lines: For all flow cytometry analyses, floating and adherent cells were analyzed on a Coulter-Beckman Elite Epics cytometer. […] Cells were gated on forward and side scatter to eliminate debris and dead cells from the analysis. […] Cell viability assays were carried out in 96-well black-walled clear-bottom plates using CellTiter-Glo® (Promega) according to the manufacturer's protocols. Imaging and quantification of these assays were performed on an IVIS imaging system (Xenogen).
Method for HCT116 p53−/− xenograft: as §4, §5
Method for HCT116 xenograft: as §4, §5
Method for SW480 xenograft: as §4

As for “TRAIL: Purified, recombinant TRAIL (TNF-related apoptosis-inducing ligand; Apo2L)”, the serum half-life in data set [1] was 20 to 30 min; in data set [1] (listed as recombinant TRAIL) it was approximately 30 min. In addition, the effect on tumor entry (in the data set on DLD-1 xenografts; in data set [2]) was “progressed” throughout.

bevacizumab [reference compound]: in data set [3] (setting [21]), the “Median Survival” value worked out at 70 days.

As for `Cc1ccccc1CN1C(=O)C2=C(CCN(Cc3ccccc3)C2)N2CCN=C12` [TIC10], the “Median Survival” value in data set [3] (setting [21]) is given as 74 days. Moreover, in [3] (single dose, intracranial xenograft of human GBM), the “change in overall survival” value was “doubled”. Besides, the “ΔMedian Survival” value in [3] (versus control cohort, single dose at 2 weeks post-implantation) is 46 days. Moreover, the prolongation of survival in data set [4] was 4 weeks. The “duration of sustained serum levels of secreted TRAIL” value in the data set on TRAIL [5] (after a single dose of TIC10) is 3 to 4 days. Further, in the data set on TRAIL [5] (setting [22]), the “duration of elevated serum levels of TRAIL” value is reported as “greater than 72 hours” and the “time at which serum TRAIL induced by TIC10 was detected following administration” value came out at 2 h. Besides, in the data set on GBM cell lines, the GI50 entry is recorded as “low micromolar range”. In addition, the effect on tumor result with HCT116 p53−/− xenograft is recorded as “tumor regression”. Further, the effect on tumor entry in the data set on SW480 xenograft is reported as “sustained regression”. For the same molecule, the effect on tumor entry with HCT116 xenograft is reported as “sustained anti-tumor efficacy”. Also, the effect on tumor result in [6] is “sustained regression”. Also, in data set [7], the “tolerability / body weight at endpoint” value is reported as “well tolerated”. Moreover, in data set [8], the blood-brain barrier crossing entry is listed as “crosses the blood-brain barrier”. The “thermal stability of cytotoxic activity” value with HCT116 cells was “thermally stable”. Moreover, the “TRAIL mRNA levels” value in data set [9] is “dose-dependent increase”. Moreover, the “TRAIL protein localized to the cell surface” value in data set [10] is recorded as “dose-dependent increase”. Further, the “cytotoxicity in primary colon cancer cells” value in data set [11] was “potent cytotoxic effects”. Further, the “pAkt and pERK levels” value in data set [12] is reported as “abolished”. In addition, in the data set on TRAIL [13], the “TRAIL protein in normal tissues (IHC)” value was “upregulated at the protein level in the brain, kidney, and spleen”; the “toxicity in normal tissues by histology and TUNEL staining” value was “without apparent toxicity”. Moreover, the clonogenic survival result in the data set with cancer cell lines is given as “decreased the clonogenic survival”. For the same molecule, the “sub-G1 DNA content” value in the data set on HCT116 p53−/− cells is reported as “induced sub-G1 DNA content”. In the data set with HFF cells [14], the “cell cycle profile of normal fibroblasts” value is given as “without altering the cell cycle profiles”. Also, the “cytotoxicity in freshly isolated GBM cells” value in data set [15] was “cytotoxic effects”. In addition, the “TRAIL promoter luciferase reporter activity” value in data set [16] is “induced TRAIL promoter-dependent transcriptional activity”. In addition, the effect on tumor result with DLD-1 xenografts is reported as “tumor stasis”. Further, the effect on tumor entry in data set [2] is “regression”. In [17] (25 mg/kg intravenous, plasma), this molecule registered a t1/2α of 2.82 min and a t1/2β of 385 min. In data set [17] (setting [23]), this molecule yielded a α of 14.9 h⁻¹ and a β of 0.108 h⁻¹. Also, in data set [17] (setting [24]), the AUC(0-inf) turned out to be 63.9 µM·h, the Cmax was 44.2 µM, the Tmax turned out to be 1.2 min and the Vd came to 9.39 L/kg. The same molecule gave a clearance in [17] (setting [24]) of 16.8 mL/min/kg. The “effects on body weight or liver histology” value in data set [18] is listed as “no adverse effects on body weight or liver histology”. Further, the “effect on normal fibroblasts in colony formation experiment” value in the data set with HFF cells [19] is recorded as “sparing normal fibroblasts”. In data set [20] (oral TIC10 25 mg/kg weekly for 4 weeks, immuno-competent mice), the “changes in a panel of serum chemistry markers” value is recorded as “did not cause any changes”. In [20] (setting [25]), this molecule yielded an Albumin of 2.9 g/dL, an Alkaline phosphate of 112 ± 12 U/L, a Blood urea nitrogen of 33.75 ± 7.3 mg/dL and a Chloride of 104 mM. Also, in [20] (setting [25]), the Creatinine was 0.15 ± .06 mg/dL, the Lactate dehyrogenase is on record as 287.5 ± 125 U/L, the Potassium is 7.325 ± 3.2 mM and the Sodium was determined as 154.5 ± 5.2 mM. For the same molecule, in [20] (setting [25]), the “Total Protein” value is 4.97 ± .61 g/dL and the Total bilirubin was found to be 2.725 ± 2.4 mg/dL.
